In US5621133A (priority 1995, dated 1997):
Counter-ions that a name gives are not always drawn. Like-named read-outs stand apart in the source and are kept apart here.

How the values were obtained:
dopamine D-1 receptor = details: for Intrinsic Activity (adenylate cyclase assay): dopamine = 100, goldfish retina or rat striatum
Description: In order to determine agonist activity, cell-free tissue homogenates are incubated in an ionic buffer solution containing ATP and the compound being evaluated. The tissue was obtained from either goldfish retina or rat striatum.

dopamine D-2 receptor = dopamine D-2 receptor (Rattus norvegicus, UniProt P61169); assay: biochemical; assay type: binding
Description: Homogenized rat caudate was the source of the D-2 receptors. […] The molar affinity of the compound for the receptor binding site was calculated by the same method used for the D-1 receptor assay, assuming a competitive interaction between the compound and the radiolabeled ligand.

[1] = rat caudate, [125I]-p-aminophenylethyl spiroperidol, read-out: D-2 Ki

Sequence of dopamine D-2 receptor (P61169 whole entry): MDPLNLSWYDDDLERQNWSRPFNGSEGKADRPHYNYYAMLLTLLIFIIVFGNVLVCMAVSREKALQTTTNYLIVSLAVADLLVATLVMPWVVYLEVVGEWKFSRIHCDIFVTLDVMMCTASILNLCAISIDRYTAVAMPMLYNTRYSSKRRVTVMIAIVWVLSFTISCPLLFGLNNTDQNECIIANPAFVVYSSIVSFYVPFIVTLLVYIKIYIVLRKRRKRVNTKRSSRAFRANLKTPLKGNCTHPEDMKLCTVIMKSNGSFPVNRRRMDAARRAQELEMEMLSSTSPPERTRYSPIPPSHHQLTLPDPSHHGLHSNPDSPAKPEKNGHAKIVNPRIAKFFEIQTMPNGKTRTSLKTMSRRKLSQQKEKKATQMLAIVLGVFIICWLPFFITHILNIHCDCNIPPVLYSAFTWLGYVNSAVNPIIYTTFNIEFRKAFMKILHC

| Intrinsic Activity (adenylate cyclase assay) (dopamine D-1 receptor) | Ki (dopamine D-2 receptor; [1]) [nM] | Compound | other results |
| --- | --- | --- | --- |
| 112 | 13000 | CC(C)(C)[C@H]1Cc2c(ccc(O)c2O)[C@@H](CN)O1 (relative stereo) [Example 48, [1,3-cis]1-Aminomethyl 3-t-butyl-5,6-dihydroxy-3,4-dihydro-1H-2-benzopyran Hydrochloride] | – |
| – | 1000 | NC[C@H]1O[C@@H](c2ccccc2)Cc2c1ccc(O)c2O (relative stereo) [Example 49] | – |
| – | – | NC[C@H]1O[C@@H](C2CCCCC2)Cc2c1ccc(O)c2O (relative stereo) [Example 50] | Ki (dopamine D-2 receptor; D-2 Ki): 1200 nM |
| 84 | 640 | C=CCCCC[C@@H]1Cc2c(ccc(O)c2O)[C@H](CN)O1 (relative stereo) [Example 66] | – |
| – | 650 | NC[C@@H]1O[C@H](c2cccc(O)c2)Cc2c1ccc(O)c2O (relative stereo) [Example 70] | – |
| – | 2800 | NC[C@@H]1O[C@H](C(c2ccccc2)c2ccccc2)Cc2c1ccc(O)c2O (relative stereo) [Example 71] | – |
| – | 440 | NC[C@@H]1O[C@H](C2CCCCCCC2)Cc2c1ccc(O)c2O (relative stereo) [Example 76] | – |
| – | 54000 | CC(C)(C)[C@H]1Cc2c(ccc(O)c2O)[C@@H](CN)O1 (relative stereo) [Example 100] | – |
| 119 | – | C=CC[C@H]1Cc2c(ccc(O)c2O)[C@@H](CN)O1 (relative stereo) [Example 101] | – |
| 65 | > 10000 | NC[C@H]1O[C@@H](C23CC4CC(CC(C4)C2)C3)Cc2c1cc(F)c(O)c2O (relative stereo) [Example 106] | – |
| – | 1100 | C#CC[C@H]1Cc2c(ccc(O)c2O)[C@@H](CN)O1 (relative stereo) [Example 110, [1,3-cis]1-Aminomethyl-5,6-dihydroxy-3-(3'-prop-1'-ynyl)-3,4-dihydro-1H-2-benzopyran Hydrochloride] | – |
| – | 720 | CNC[C@H]1O[C@@H](C2CCCCC2)Cc2c1ccc(O)c2O (relative stereo) [Example 111, [1,3-cis]3-Cyclohexyl-5,6-dihydroxy-1-methylaminomethyl-3,4-dihydro-1H-2-benzopyran Hydrochloride] | – |
| – | > 10000 | C#CCN(C)C[C@H]1O[C@@H](C2CCCCC2)Cc2c1ccc(O)c2O (relative stereo) [Example 119] | – |
| – | 3000 | C=CCN(C)C[C@H]1O[C@@H](C2CCCCC2)Cc2c1ccc(O)c2O (relative stereo) [Example 120] | – |
| 51 | – | C=CCN(C)C[C@H]1O[C@@H](CCCCCC)Cc2c1ccc(O)c2O (relative stereo) [Example 121] | EC50 (dopamine D-1 receptor; read-out: EC50 (agonist activity in adenylate cyclase assay), tissue from goldfish retina or rat striatum): 21000 nM |
| 107 | 91 | CCCCC[C@H]1Cc2c(ccc(O)c2O)[C@@H](CNC)O1 (relative stereo) [Example 144] | – |
| 65 | 2200 | Br.N[C@@H]1CCc2cc(O)c(O)c3c2[C@H]1C[C@H](c1ccccc1)C3 (relative stereo) [Example 182, [1R*,8S*,9aR*]1-Amino-5,6-dihydroxy-8-phenyl-2,3,7,8,9,9a-hexahydro-phenalene Hydrobromide] | – |
| 56 | > 10000 | Br.N[C@H]1CCc2cc(O)c(O)c3c2[C@H]1C[C@H](c1ccccc1)C3 (relative stereo) [Example 183, [1S*,8S*,9aR*]1-Amino-5,6-dihydroxy-8-phenyl-2,3,7,8,9,9a-hexahydrophenalene Hydrobromide] | – |
| – | 910 | NC[C@@H]1O[C@H](c2ccccc2)Cc2c1ccc(O)c2O [Example 54] | – |
| – | 4500 | COc1ccc(CC2Cc3c(ccc(O)c3O)C(CN)O2)cc1 (stereo not drawn) [Example 83] | – |
| – | 870 | NCC1OC(c2ccccc2)Cc2c1ccc(O)c2O (stereo not drawn) [Example 96] | – |
| 70 | – | CC(=O)NCC1=CC(c2ccccc2)Cc2c1ccc(O)c2O (stereo not drawn) [Example 213, 1-Acetylaminomethyl-3-phenyl-5,6-dihydroxy-3,4-dihydronaphthalene] | – |

| Compound | Intrinsic Activity (adenylate cyclase assay) (dopamine D-1 receptor) | Ki (dopamine D-2 receptor; [1]) [nM] | other results |
| --- | --- | --- | --- |
| Oc1ccc2c(c1O)CC1(CCCCCC1)C1CCNCC21 (stereo not drawn) [Example 252] | 49 | – | – |
